Where “and” joins values, the source holds several entries; their conditions need not be identical. Identical values can stand only once. Like-named read-outs stand apart in the source and are kept apart here.
Assays:
PIN8 = target: T1, PIN8 (Arabidopsis thaliana, UniProt Q9LFP6); assay: SSM electrophysiology, KD by inhibition of the NPA binding current
T1 construct: made in house
T1 sequence (Q9LFP6 1-367): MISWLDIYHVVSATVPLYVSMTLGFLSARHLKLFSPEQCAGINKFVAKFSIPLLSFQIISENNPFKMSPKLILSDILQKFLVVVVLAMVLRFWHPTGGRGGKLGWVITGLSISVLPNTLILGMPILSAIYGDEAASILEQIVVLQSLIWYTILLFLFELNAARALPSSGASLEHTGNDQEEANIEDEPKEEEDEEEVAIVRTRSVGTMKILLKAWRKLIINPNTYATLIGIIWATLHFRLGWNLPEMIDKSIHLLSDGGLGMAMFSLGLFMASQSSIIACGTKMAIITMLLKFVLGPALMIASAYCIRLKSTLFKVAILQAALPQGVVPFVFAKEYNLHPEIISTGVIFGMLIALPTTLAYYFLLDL
Method: (§1) SSM, using a SURFE2R N1 from Nanion Technologies, was conducted as described. In brief, soy polar lipid mix (38% phosphatidyl choline, 30% phosphatidyl ethanolamine, 18% phosphatidyl inositol, 7% phosphatidic acid and 7% other soy lipids) and 1-palmitoyl-2-oleoyl-sn-glycero-3-phosphocholin were purchased from Avanti. Liposomes were prepared in Ringer solution without Ca^2+ (115 mM NaCl, 2.5 mM KCl, 1 mM NaHCO3, 10 mM HEPES pH7.4, 1 mM MgCl2) and homogenized using a Lipsofast (Avestin) with a […]. Triton X-100 was added to the liposomes to a final concentration of 1% (v/v). Protein was added to liposomes to a calculated lipid-to-protein ratio (LPR) of 10 unless stated otherwise. The detergent was removed using 400 mg ml^−1 Bio Beads (BioRad) overnight at 4 °C in a rotary shaker. Proteoliposomes were frozen in liquid nitrogen and kept at −80 °C until use. Proteoliposomes were diluted 1:5 in Ringer solution without Ca^2+, sonicated five times and then applied to the sensors by centrifugation (30 min, 3,000 g, 4 °C). Non-activating buffer was Ringer solution without Ca^2+ as described unless specified otherwise, and activating buffer contained the substrate of interest. In most instances we used a single-solution exchange experiment. In this case proteoliposomes, immobilized on the supported membrane, are kept in non-activating buffer as specified. At the beginning of the experiment the non-activating buffer is replaced with fresh identical non-activating buffer, and after 1 s, activating buffer (same buffer containing substrate) is added. After another second, the buffer is replaced with non-activating buffer again. Current response is recorded throughout the entire 3 s. For competition or inhibition, the respective compound was present in non-activating and activating solutions. Each experiment was performed on at least two individual sensors. On each sensor each measurement consists of three technical replicates where the mean is calculated. KD values were determined as described previously. Briefly, the binding current induced by 100 µM NPA was recorded in the presence of different concentrations of the substrate under investigation ranging between 0 µM and 1,000 µM present in the activating solution and the non-activating solution (Extended Data Fig. 5b). […] The maximum peak current was then plotted as a function of the concentration of the substrate under investigation and plotted against the degree of inhibition and fitted with a one-site binding model using GraphPad Prism V10.4.1 The half maximal concentration corresponds to the KD of the substrate under investigation.

[1] = target: T2, wild-type PIN8 proteoliposomes (Arabidopsis thaliana, UniProt Q9LFP6); assay: SSM electrophysiology, peak width (FWHM) of current response at LPR10 and LPR50; type: biochemical; settings: for Rel. FWHM (% of LPR10): replicates
T2 construct: made in house
T2 sequence (Q9LFP6 1-367): T1 sequence (Q9LFP6 1-367)
Method: as §1

A. thaliana PIN8 = target: T3, A. thaliana PIN8 (Arabidopsis thaliana, UniProt Q9LFP6); assay: SSM electrophysiology, peak current response on PIN8 proteoliposomes; type: biochemical; settings: 100 μM 2,4-D, 20 µM NPA
T3 construct: made in house
T3 sequence (Q9LFP6 1-367): T1 sequence (Q9LFP6 1-367)
Method: as §1

PIN8 N223A = target: T4, PIN8 N223A (Arabidopsis thaliana, UniProt Q9LFP6, N223A); type: biochemical; settings: PIN8 N223A, Michaelis–Menten fit
T4 construct: made in house
T4 sequence (Q9LFP6 whole entry N223A): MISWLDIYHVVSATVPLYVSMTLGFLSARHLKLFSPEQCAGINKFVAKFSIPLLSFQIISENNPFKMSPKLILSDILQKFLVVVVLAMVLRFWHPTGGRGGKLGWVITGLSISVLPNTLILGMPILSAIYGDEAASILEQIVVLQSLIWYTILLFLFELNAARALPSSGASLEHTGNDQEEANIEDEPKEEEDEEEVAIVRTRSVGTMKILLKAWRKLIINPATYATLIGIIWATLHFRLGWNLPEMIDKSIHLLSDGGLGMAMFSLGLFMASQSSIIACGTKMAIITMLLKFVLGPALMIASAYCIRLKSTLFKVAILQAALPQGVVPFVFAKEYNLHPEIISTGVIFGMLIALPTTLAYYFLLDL
Method: as §1
The protocol for expression and purification of AtPIN8 protein (Uniprot: Q9LFP6) in lauryl maltose neopentyl glycol was described previously. All point mutants were generated using Q5 Site-Directed mutagenesis kit (New England Biolabs). The C-flat Holey Carbon grids (CF-1.2/1.3, Cu-300 mesh) were glow-discharged for 45 s at 15 mA in a GloQube Plus (Quorum). […] After 1 h of incubation on ice, the sample was centrifuged at 16,000 g for 15 min before blotting to remove precipitation. A drop of 4 µl of each sample was applied to the glow-discharged grids, blotted with a Vitrobot Mark IV (ThermoFisher Scientific) using the following settings (temperature 4 °C, 100% humidity, blot time of 4 s, blot force −1) and vitrified in liquid ethane.

[2] = Peak current, sheet F2A (Fig. 2a, KD of substrate binding), individual sensors
[3] = read-out: Rel. Inhibition of NPA peak currents, 50 µM substrate, 100 µM NPA, individual sensors
[4] = read-out: Rel. Inhibition of NPA peak currents, 100 µM substrate, 100 µM NPA, individual sensors
[5] = read-out: Rel. Inhibition of NPA peak currents, 250 µM substrate, 100 µM NPA, individual sensors
[6] = read-out: Rel. Inhibition of NPA peak currents, 500 µM substrate, 100 µM NPA, individual sensors
[7] = read-out: Rel. Inhibition of NPA peak currents, 1000 µM substrate, 100 µM NPA, individual sensors
[8] = sheet F2A (Fig. 2a, KD of substrate binding), individual sensors, read-out: Peak current
[9] = 50 µM substrate, 100 µM NPA, individual sensors, read-out: Rel. Inhibition of NPA peak currents
[10] = 100 µM substrate, 100 µM NPA, individual sensors, read-out: Rel. Inhibition of NPA peak currents
[11] = 250 µM substrate, 100 µM NPA, individual sensors, read-out: Rel. Inhibition of NPA peak currents
[12] = 500 µM substrate, 100 µM NPA, individual sensors, read-out: Rel. Inhibition of NPA peak currents
[13] = 1000 µM substrate, 100 µM NPA, individual sensors, read-out: Rel. Inhibition of NPA peak currents
[14] = 20 µM substrate, 100 µM NPA, individual sensors, read-out: Rel. Inhibition of NPA peak currents

Compound | binding affinity to PIN8 in words (PIN8) | Kd (PIN8; [2]) | inhibition at 250 µM (PIN8; [5]) [%] | inhibition at 500 µM (PIN8; [6]) [%] | inhibition at 1000 µM (PIN8; [7]) [%] | Kd (PIN8; [8]) | inhibition at 50 µM (PIN8; [9]) [%] | inhibition at 100 µM (PIN8; [10]) [%] | inhibition at 250 µM (PIN8; [11]) [%] | inhibition at 500 µM (PIN8; [12]) [%] | inhibition at 1000 µM (PIN8; [13]) [%] | inhibition at 20 µM (PIN8; [14]) [%] | Rel. FWHM (% of LPR10) ([1]; LPR10) | Rel. FWHM (% of LPR10) ([1]; LPR50) | other results
Cc1cc(Cl)ccc1OCC(=O)O [MCPA, 2-methyl-4-chlorophenoxyacetic acid] | intermediate affinity | 149 µM and 159 µM and 103 µM | 65.4 | 78.3 | 88.6 | – | – | – | – | – | – | – | – | – | inhibition at 50 µM (PIN8; [3]): 25.1%; inhibition at 100 µM (PIN8; [4]): 41.7%
O=C(O)COc1cc(Cl)c(Cl)cc1Cl [2,4,5-T, 2,4,5-trichlorophenoxyacetic acid] | highest affinity | 9.28 µM | 91 | 95.3 | 98.4 | 8.98 µM | – | – | – | – | – | – | – | – | inhibition at 1 µM (PIN8; read-out: Rel. Inhibition of NPA peak currents, 1 µM substrate, 100 µM NPA, individual sensors): 11.8%; inhibition at 5 µM (PIN8; read-out: Rel. Inhibition of NPA peak currents, 5 µM substrate, 100 µM NPA, individual sensors): 35.9%; inhibition at 20 µM (PIN8; read-out: Rel. Inhibition of NPA peak currents, 20 µM substrate, 100 µM NPA, individual sensors): 65.7%; inhibition at 50 µM (PIN8; [3]): 78.2%; inhibition at 100 µM (PIN8; [4]): 87.3%
Cc1ccccc1OCC(=O)O [2-MPA, 2-methylphenoxyacetic acid] | – | – | – | – | – | 284 µM and 209 µM and 256 µM | 13 | 27.5 | 53.9 | 74.7 | 82.9 | – | – | – | –
Cc1ccc(OCC(=O)O)cc1 [4-MPA, 4-methylphenoxyacetic acid] | – | – | – | – | – | 710 µM and 614 µM and 521 µM | – | 12.1 | 25.7 | 40.8 | 58.3 | – | – | – | inhibition at 2000 µM (PIN8; 2000 µM substrate, 100 µM NPA, individual sensors, read-out: Rel. Inhibition of NPA peak currents): 72.8%
O=C(O)CCc1ccc(Cl)cc1Cl [2,4-DPP, 3-(2,4-dichlorophenyl)-propionic acid] | higher affinity than 2,4-D | – | – | – | – | 18.1 µM and 22.4 µM and 23.3 µM | 51.9 | 63.6 | 77.8 | 77.9 | – | 37.2 | – | – | inhibition at 5 µM (PIN8; 5 µM substrate, 100 µM NPA, individual sensors, read-out: Rel. Inhibition of NPA peak currents): 15.1%
O=C(O)COc1ccc(Cl)cc1Cl [2,4D] | – | – | – | – | – | – | – | – | – | – | – | – | 1.043 % of LPR10 (2×) and 0.913 % of LPR10 | 1.565 % of LPR10 and 1.304 % of LPR10 and 1.239 % of LPR10 and 1.63 % of LPR10 | –
O=C(O)c1ccccc1C(=O)Nc1cccc2ccccc12 [NPA, 1-N-naphthylphthalamic acid] | – | – | – | – | – | – | – | – | – | – | – | – | 0.9324 % of LPR10 and 1.054 % of LPR10 and 1.014 % of LPR10 | 0.6892 % of LPR10 and 0.7297 % of LPR10 and 0.7703 % of LPR10 | peak width of SSM-based current response as a function of lipid-to-protein ratio (LPR) ([1]; LPR10 versus LPR50): does not change with LPR; effect on the PIN8 current response to 2,4-D (A. thaliana PIN8): inhibited
O=C(O)COc1ccccc1 [PA, phenoxyacetic acid] | – | 605 µM and 377 µM | 30.3 | 47.3 | 60.5 | 485 µM | – | – | – | – | – | – | – | – | –
Cc1ccc(OCC(=O)O)c(C)c1 [2,4-DMPA, 2-(2,4-dimethylphenoxy)acetic acid] | – | – | – | – | – | 205 µM and 139 µM and 178 µM | 21.8 | 37 | 61.3 | 78.8 | 92.8 | 9.25 | – | – | Kd (PIN8; inhibition of peak current elicited by 100 µM NPA, read-out: KD of substrate binding by PIN8): 174 ± 33 µM
O=C(O)COc1ccccc1Cl [2-CPA, 2-chlorophenoxyacetic acid] | high affinity, comparable to that of IAA and 2,4-D | – | – | – | – | 106 µM and 112 µM and 101 µM | 33.3 | 57 | – | 94.3 | 99.8 | 19.9 | 0.9412 % of LPR10 and 1.059 % of LPR10 and 1 % of LPR10 | 1.824 % of LPR10 (2×) and 1.235 % of LPR10 and 1.647 % of LPR10 | Imax (PIN8 N223A): 3 ± 0.1 nA and 2.6 ± 0.1 nA; EC50 (PIN8 N223A; No transport = model could not be fit, read-out: EC50 of peak current response): 263 µM

Source: publication PMC12095047, “Transport of phenoxyacetic acid herbicides by PIN-FORMED auxin transporters” (Nature Plants, 2025)
